Reference: paper PMC11528321 (RSC Medicinal Chemistry, 2024)
“Also recorded” adds a separate entry of the source.

Tests used:
OE33 and FLO-1 cells = experiment: Antiproliferative screening, both OC cell lines together; type: cell-based, human; conditions: for antiproliferative activity (in words): dose range 0.003-30 μM
AuroraA = biological target: T1, AuroraA (Homo sapiens, UniProt O14965); experiment: 33PanQinase kinome profiling; type: biochemical; conditions: mean, respect to DMSO control
T1 sequence (O14965 1-403): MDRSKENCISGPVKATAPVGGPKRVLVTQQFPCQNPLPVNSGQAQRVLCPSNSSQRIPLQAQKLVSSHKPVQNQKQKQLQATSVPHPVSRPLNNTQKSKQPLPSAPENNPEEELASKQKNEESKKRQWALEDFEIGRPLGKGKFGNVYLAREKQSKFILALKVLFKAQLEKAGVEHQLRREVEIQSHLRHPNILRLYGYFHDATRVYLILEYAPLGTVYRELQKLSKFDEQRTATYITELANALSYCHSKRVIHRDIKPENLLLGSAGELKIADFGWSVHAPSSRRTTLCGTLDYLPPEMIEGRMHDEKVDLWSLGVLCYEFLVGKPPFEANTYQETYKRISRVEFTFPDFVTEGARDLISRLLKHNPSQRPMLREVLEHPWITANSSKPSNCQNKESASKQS

AXL = biological target: T2, AXL (Homo sapiens, UniProt P30530); experiment: 33PanQinase kinome profiling; type: biochemical; conditions: 1 μM
T2 sequence (P30530 26-894): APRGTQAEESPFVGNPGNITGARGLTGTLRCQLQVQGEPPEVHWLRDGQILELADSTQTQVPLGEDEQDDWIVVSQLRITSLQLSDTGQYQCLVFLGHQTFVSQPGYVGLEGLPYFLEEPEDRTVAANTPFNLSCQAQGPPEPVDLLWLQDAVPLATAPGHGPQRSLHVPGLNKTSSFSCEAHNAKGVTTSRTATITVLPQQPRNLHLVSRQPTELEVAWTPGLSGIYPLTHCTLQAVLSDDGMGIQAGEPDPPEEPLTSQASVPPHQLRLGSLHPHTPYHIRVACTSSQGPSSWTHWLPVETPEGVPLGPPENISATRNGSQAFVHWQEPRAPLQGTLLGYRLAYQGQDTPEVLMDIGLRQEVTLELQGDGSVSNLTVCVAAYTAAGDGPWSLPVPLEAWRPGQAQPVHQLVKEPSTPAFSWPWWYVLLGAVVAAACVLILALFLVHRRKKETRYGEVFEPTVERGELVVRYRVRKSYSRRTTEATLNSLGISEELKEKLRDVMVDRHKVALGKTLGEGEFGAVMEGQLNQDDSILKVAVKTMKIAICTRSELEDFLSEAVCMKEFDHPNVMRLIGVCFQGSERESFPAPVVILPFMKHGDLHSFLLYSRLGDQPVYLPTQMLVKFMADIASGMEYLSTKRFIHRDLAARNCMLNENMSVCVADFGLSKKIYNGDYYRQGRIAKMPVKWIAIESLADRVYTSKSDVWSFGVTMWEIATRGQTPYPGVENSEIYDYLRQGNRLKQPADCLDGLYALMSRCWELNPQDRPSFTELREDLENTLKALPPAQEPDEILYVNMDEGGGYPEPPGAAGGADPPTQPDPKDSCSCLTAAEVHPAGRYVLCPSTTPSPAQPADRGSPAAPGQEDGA

FLT3 = biological target: T3, FLT3 (Homo sapiens, UniProt P36888); experiment: 33PanQinase kinome profiling; type: biochemical; conditions: mean, respect to DMSO control
T3 sequence (P36888 564-993 limits assumed): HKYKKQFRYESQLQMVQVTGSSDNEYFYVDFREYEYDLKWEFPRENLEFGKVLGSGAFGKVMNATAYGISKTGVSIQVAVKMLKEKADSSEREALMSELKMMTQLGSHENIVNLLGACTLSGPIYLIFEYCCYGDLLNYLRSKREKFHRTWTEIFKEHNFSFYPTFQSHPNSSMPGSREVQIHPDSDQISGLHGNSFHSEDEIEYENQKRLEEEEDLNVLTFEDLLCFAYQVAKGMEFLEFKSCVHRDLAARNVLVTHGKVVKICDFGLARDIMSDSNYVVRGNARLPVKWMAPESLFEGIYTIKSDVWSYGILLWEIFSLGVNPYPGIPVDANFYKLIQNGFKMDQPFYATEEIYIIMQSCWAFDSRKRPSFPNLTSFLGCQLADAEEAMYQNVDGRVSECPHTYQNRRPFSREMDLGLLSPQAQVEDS

RET = RET (Homo sapiens, UniProt P07949); experiment: 33PanQinase kinome profiling; type: biochemical; conditions: mean, respect to DMSO control
Chain of RET (P07949 29-1114): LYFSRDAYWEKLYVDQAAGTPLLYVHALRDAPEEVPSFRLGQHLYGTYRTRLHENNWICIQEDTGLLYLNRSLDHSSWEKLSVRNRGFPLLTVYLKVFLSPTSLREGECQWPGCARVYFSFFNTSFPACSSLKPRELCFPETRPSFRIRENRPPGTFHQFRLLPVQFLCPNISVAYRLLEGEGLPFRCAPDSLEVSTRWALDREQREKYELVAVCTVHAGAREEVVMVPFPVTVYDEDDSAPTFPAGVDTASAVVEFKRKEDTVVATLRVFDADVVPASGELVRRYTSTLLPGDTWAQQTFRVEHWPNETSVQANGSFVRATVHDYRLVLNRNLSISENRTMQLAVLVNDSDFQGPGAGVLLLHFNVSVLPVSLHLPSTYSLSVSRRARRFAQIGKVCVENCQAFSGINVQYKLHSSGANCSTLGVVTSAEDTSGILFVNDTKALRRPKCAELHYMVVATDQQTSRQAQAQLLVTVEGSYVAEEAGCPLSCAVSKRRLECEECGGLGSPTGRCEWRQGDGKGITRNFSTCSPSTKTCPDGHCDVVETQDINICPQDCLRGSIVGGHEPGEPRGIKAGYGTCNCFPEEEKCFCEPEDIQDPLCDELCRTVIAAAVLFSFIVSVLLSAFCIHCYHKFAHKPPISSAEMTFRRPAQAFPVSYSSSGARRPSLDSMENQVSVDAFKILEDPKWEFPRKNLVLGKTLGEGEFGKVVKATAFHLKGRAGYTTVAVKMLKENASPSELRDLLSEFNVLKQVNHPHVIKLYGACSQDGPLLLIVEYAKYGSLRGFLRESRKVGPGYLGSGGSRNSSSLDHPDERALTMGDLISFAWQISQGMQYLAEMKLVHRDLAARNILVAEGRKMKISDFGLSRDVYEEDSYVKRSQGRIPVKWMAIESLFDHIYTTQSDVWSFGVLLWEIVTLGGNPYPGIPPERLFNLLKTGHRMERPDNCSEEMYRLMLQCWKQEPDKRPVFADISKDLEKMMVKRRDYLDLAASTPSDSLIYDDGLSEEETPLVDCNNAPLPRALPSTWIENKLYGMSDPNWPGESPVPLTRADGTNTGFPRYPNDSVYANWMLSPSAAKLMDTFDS

OE33 cells = experiment: Cell cycle assay; type: cell-based, human; conditions: 3 μM, 72 h, vs DMSO control
FLO-1 cells = experiment: Cell cycle assay; type: cell-based, human; conditions: 3 μM, 72 h, vs DMSO control
[1] = biological target: T4, Nano-Luc-Aurora A (fusion vector) in HEK293 (Homo sapiens, UniProt O14965); experiment: NanoBRET target engagement assay; type: cell-based; conditions: HEK293, 1 h treatment, 0.001-100 µM
T4 sequence (O14965 1-403): T1 sequence (O14965 1-403)

COC1CCN(C(=O)/C=C/c2nn(CC3CCCC3)c3ncnc(N)c23)CC1 [1A7]
antiproliferative activity (in words) (OE33 and FLO-1 cells): completely inactive

CNc1ncc2c(/C=C/C(=O)N3CCC4(CC3)OCCO4)nn(Cc3cccc(C)c3)c2n1 [2C4]
fold increase in antiproliferative potency over 2B10 (OE33 and FLO-1 cells; compared with 2B10): 2 fold

CNc1ncc2c(/C=C/C(=O)N3CCC(OC)CC3)nn(Cc3cccc(C(F)(F)F)c3)c2n1 [2D7, (2E)-1-(4-Methoxypiperidin-1-yl)-3-[6-(methylamino)-1-{[3-(trifluoromethyl)phenyl]methyl}-1H-pyrazolo[3,4-d]pyrimidin-3-yl]prop-2-en-1-one]
% Inhibition [1uM] (AuroraA): > 50% | inhibition of AXL (in words) (AXL): minimal to no inhibition | % Inhibition [1uM] (FLT3): minimal to no inhibition | % Inhibition [1uM] (RET): minimal to no inhibition | effect on the cell cycle (in words) (OE33 cells): rapid arrest of cells in the G2/M phase; also recorded: slight increase in the number of cells in the sub-G1 phase | effect on the cell cycle (in words) (FLO-1 cells): enrichment of cells in the S and G2/M phases | AURKA target engagement in cells (in words) [1]: direct dose-dependent binding

Nc1ncnc2c1c(/C=C/C(=O)O)nn2CC1CCCC1 [compound 10]
antiproliferative activity (in words) (OE33 and FLO-1 cells): lack of activity

CNc1ncc2c(/C=C/C(=O)O)nn(CC3CCCC3)c2n1 [compound 12]
antiproliferative activity (in words) (OE33 and FLO-1 cells): lack of activity
